Data set [1] relates to human liver microsomes (HLMs), UGT. The experiment in a line: Kinetics of IMM-H004G formation (glucuronidation) in UDPGA-supplemented human liver microsomes. It is filed as in vitro ADME. The note with it: substrate IMM-H004. The protocol:
(§1) To explore glucuronidation difference of IMM-H004 between humans and rats, the kinetics of IMM-H004G formation in UDPGA-supplemented HLMs and RLMs were determined. The incubation mixtures consisted of HLMs or RLMs (0.025 mg protein/ml), alamethicin (50 μg/mg protein), IMM-H004 (0.5–2,500 μM), and UDPGA (5 mM) in a final volume of 0.2 ml Tris-HCl buffer (50 mM, pH 7.4) containing 5 mM MgCl2. HLM or RLM was preincubated with alamethicin on ice for 15 min. The reaction was incubated at 37°C for 10 min and quenched by adding 200 μL of ice-cold acetonitrile containing IS (100 ng/ml). After vortex-mixing and centrifugation, IMM-H004G in the supernatant was analyzed by LC-MS/MS.
(§2) The LC-MS/MS system consisted of Shimadzu 30A UPLC and API 4000 triple quadruple mass spectrometer (AB SCIEX, USA). Data acquisition and analysis were accomplished using Analyst 1.5.2 software. The analytes and IS were chromatographed by injection of 1 μL sample. The mobile phases consisted of solvent A (0.5% formic acid in water) and solvent B (0.5% formic acid in methanol) at a flow rate of 0.3 ml/min on an Eclipse Plus C18 column (2.1 mm × 50 mm, 3.5 μm, Agilent, USA), and the operating temperature was 40°C. […] The specific transitions monitored were 305→248 for IMM-H004, 291→234 for M1, 291→248 for M2, 481→305 for IMM-H004G, 385→305 for M4, and 260→183 for IS.

Data set [2] deals with rat liver microsomes (RLMs). The experiment in a line: Kinetics of IMM-H004 demethylation (M1 and M2 formation) in rat liver microsomes. It is filed as in vitro ADME. The note with it: substrate IMM-H004. The protocol:
(§3) To compare the metabolic capability of IMM-H004 demethylation in rat and human liver microsomes, the kinetics of M1 and M2 formation in HLMs or RLMs were determined. Enzyme kinetic experiments were performed in triplicate. The incubation mixtures contained HLM/RLM (1 mg protein/ml), IMM-H004 (0.1–1,800 μM), and NADPH (1.2 mM) in a final volume of 0.2 ml Tris-HCl buffer (50 mM, pH 7.4) containing 5 mM MgCl2. The reaction was incubated at 37°C for 20 min and stopped by adding 200 μL of ice-cold acetonitrile containing IS (100 ng/ml). After vortex-mixing and centrifugation, M1 and M2 in the supernatant were analyzed by LC-MS/MS.
(§4) The LC-MS/MS system consisted of Shimadzu 30A UPLC and API 4000 triple quadruple mass spectrometer (AB SCIEX, USA). Data acquisition and analysis were accomplished using Analyst 1.5.2 software. The analytes and IS were chromatographed by injection of 1 μL sample. The mobile phases consisted of solvent A (0.5% formic acid in water) and solvent B (0.5% formic acid in methanol) at a flow rate of 0.3 ml/min on an Eclipse Plus C18 column (2.1 mm × 50 mm, 3.5 μm, Agilent, USA), and the operating temperature was 40°C. The elution condition was 10% solvent B for 0.7 min, ascending to 98% B in 2.3 min, holding for 3.0 min and reequilibrating to 10% B within 0.1 min and maintained for 2.4 min (Jiang JW, 2018). The specific transitions monitored were 305→248 for IMM-H004, 291→234 for M1, 291→248 for M2, 481→305 for IMM-H004G, 385→305 for M4, and 260→183 for IS.
Background: Microsomes from liver hold many membrane-bound enzymes, among them those of drug oxidation.

Data set [3] in a line: Plasma pharmacokinetics in MCAO/R rats after iv IMM-H004 citrate. The note with it: rat, iv IMM-H004 citrate 10 mg/kg. It counts as in vivo. On the procedure: The plasma pharmacokinetics (PK) and pharmacodynamics (PD) of IMM-H004 and IMM-H004G were investigated in a cerebral ischemia-reperfusion rat model produced by middle cerebral artery occlusion/reperfusion (MCAO/R) after iv administration of IMM-H004. In brief, rats underwent a 1-h MCAO and then received IMM-H004 citrate (10 mg/kg, dissolved in saline to yield a concentration of 2 mg/ml) immediately after reperfusion, an effective dosing time as reported ([Zuo et al., 2015]; [Yang et al., 2017]). For sham surgery, all the arteries were exposed for the surgical period, but the filament was not inserted into the MCA. Blood samples were collected through external jugular vein cannula into heparinized tubes at 0.033, 0.167, 0.5, 1, 2, 4, 6, 8, 12, 24, 36, and 48 h postdose for IMM-H004 and IMM-H004G detection (50 μL of blood at each time point) and at 0.5, 1, 2, 4, 7, and 10 h postdose for malondialdehyde (MDA) detection (80 μL of blood at each time point). Plasma was immediately separated by centrifugation at 900×g for 5 min. Plasma concentrations of IMM-H004 and IMM-H004G in ischemia-reperfusion rats were determined by LC-MS/MS analysis. The PK parameters were calculated by noncompartmental analysis using WinNonlin Version 6.1 (Pharsight, Mountain View, CA). Plasma MDA concentrations in ischemia-reperfusion and sham rats within 24 h were estimated by enzyme-linked immunosorbent assay.
as §4

Details of data set [4]: method as in Zhang et al., 2017. The note with it: rat plasma and brain, 6 mg/kg; ref Zhang et al., 2017; cited from earlier work.
Data set [5] relates to rat liver microsomes (RLMs), UGT. The experiment in a line: Kinetics of IMM-H004G formation (glucuronidation) in UDPGA-supplemented rat liver microsomes. The note with it: substrate IMM-H004. It counts as in vitro ADME. The protocol:
as §1, §2

Data set [6] concerns human liver microsomes (HLMs). The experiment in a line: Kinetics of IMM-H004 demethylation (M1 and M2 formation) in human liver microsomes. The note with it: substrate IMM-H004. It is filed as in vitro ADME. On the procedure:
as §3, §4

Details of data set [7]: method as in Jiang et al., 2018. The note with it: rat brain; ref Jiang et al., 2018; cited from earlier work.
Data set [8] can be described thus: Excretion in rat urine, bile and feces after iv IMM-H004 citrate. The note with it: iv IMM-H004 citrate 6 mg/kg. It is filed as in vivo. On the procedure: After intravenous (iv) injection with IMM-H004 citrate (6 mg/kg, dissolved in saline to yield a concentration of 1.2 mg/ml), rats were housed individually in metabolic cages to allow separate collection of urine and feces until 72 h postdose. Additional rats were bile cannulated under light ether anesthesia. Each rat was housed individually in a metabolic cage and allowed to recover from anesthesia for 2 to 3 h. Then bile duct cannulated rats were iv injected with IMM-H004 citrate (6 mg/kg, dissolved in saline to yield a concentration of 1.2 mg/ml), bile samples were collected until 24 h postdose.
Feces samples were homogenized in 10-fold solvent of water and methanol (1:1) and diluted 10-fold in water. Bile and urine samples were diluted 100-fold in water. The concentrations of IMM-H004, M1, M2, and IMM-H004G in diluted bile, urine, and feces samples were determined by LC-MS/MS.
as §4

As a reminder, the AUC(0-inf) is total exposure, with the tail of the curve extrapolated. Read a high AUC(0-inf) as high exposure. For orientation: AUC(0-t) means exposure summed from dosing to a finite time, without extrapolation to infinity. Lower therefore signals low exposure. One may read the Cmax as the maximum level reached in the sampled fluid or tissue. For `COc1cc(O)cc2oc(=O)c(N3CCN(C)CC3)c(C)c12` [IMM-H004, 7-hydroxy-5-methoxy-4-methyl-3-(4-methylpiperazin-1-yl)-coumarin], in data set [1], the “K m of IMM-H004G formation (glucuronidation)” value came to 119.3 µM and the “V max of IMM-H004G formation (glucuronidation)” value came out at 3.25 nmol/min/mg protein. In data set [2], the “K m of M1 formation (6-demethylation)” value is 1,244.0 μM, the “K m of M2 formation (N-demethylation)” value is 111.9 µM, the “V max of M1 formation (6-demethylation)” value was determined as 1.34 nmol/min/mg protein and the “V max of M2 formation (N-demethylation)” value came out at 0.12 nmol/min/mg protein. In data set [3], this molecule came in with an AUC(0-inf) of 1640 ng·h/mL, an AUC(0-t) of 1640 ng·h/mL and a Cmax of 7460 ng/mL. For the same molecule, the MRT last in data set [3] (read-out: MRT(0-t)) amounted to 10.8 ± 0.6 min. Also, in data set [3] (read-out: MRT(0-∞)), the MRT inf was found to be 11.4 ± 1.2 min. Also, the half-life in data set [3] (read-out: t 1/2β (converted)) was 25.2 ± 1.8 min. In addition, in data set [3] (iv, 10 mg/kg, read-out: T max), the Tmax is 1.8 min. In addition, the “elimination half-life (t 1/2β)” value in data set [4] is 11.4 min. Besides, in data set [5], the “K m of IMM-H004G formation (glucuronidation)” value was 9.5 µM and the “V max of IMM-H004G formation (glucuronidation)” value came out at 5.04 nmol/min/mg protein. For the same molecule, in data set [6], the “K m of M1 formation (6-demethylation)” value was 2,935.0 μM, the “K m of M2 formation (N-demethylation)” value was determined as 491.4 µM, the “V max of M1 formation (6-demethylation)” value was 1.99 nmol/min/mg protein and the “V max of M2 formation (N-demethylation)” value was found to be 0.07 nmol/min/mg protein. Moreover, the “T max (crossing the blood–brain barrier)” value in data set [7] is 12.6 min. Also, the “recovery of IMM-H004G and IMM-H004 in bile” value in data set [8] (bile duct cannulated rats, until 24 h) is 76.1 % of intake. Besides, the “IMM-H004 in fecal specimens” value in data set [8] (rat feces, until 72 h) is 18 % of the dose.

The record behind these values is PMC6584114, “Metabolism of IMM-H004 and Its Pharmacokinetic-Pharmacodynamic Analysis in Cerebral Ischemia/Reperfusion Injured Rats” (Frontiers in Pharmacology, 2019).
